Laboratory results taken from patent US8604085B2, “Bupropion hydrobromide polymorphs” (Valeant International Bermuda, priority 2008, dated 2013).
Like-named read-outs stand apart in the source and are kept apart here.

Legend:
Format in all cases: physicochemical
[1] = Stability tests on bupropion hydrobromide polymorphs in humidity chamber (XRD pattern); settings: 40° C., 85% R.H., open sample-holder
Description: Stability tests were performed on bupropion hydrobromide Form I, Form II, Form III, Form IV, Form V and Form VI. The powders were stored in a controlled atmosphere (85% R.H.) at 40° C. Form I and Form II were stored for 7 and 30 days respectively, while the other forms were stored only for 30 days. The sample was positioned on the sample-holder which was introduced, without any cover, into the humidity chamber at 40° C. The layer of the sample on the sample-holder was about 0.5 cm.
In addition, stability tests were performed on bupropion hydrobromide Form VII.

[2] = Slurries in 2-propanol at room temperature, 50° C. and 80° C.; settings: form by XRD
Description: 0.050 g of Form I were suspended in 4 ml of solvent and stirred at room temperature. for 1 week (7 days). The sample was filtered and analyzed by X-ray diffraction.
0.040 g of Form I+0.040 g of Form II were suspended in 4 ml of solvent and stirred at room temperature for 1 week (7 days). The sample was filtered and analyzed by X-ray diffraction experiments.
0.050 g of Form II were suspended in 4 ml of solvent and stirred at room temperature for 1 week (7 days). The sample was filtered and analyzed by X-ray diffraction experiments.
0.050 g of Form I were suspended in 4 ml of solvent and stirred at 50° C. for 1 Week (7 days). The sample was filtered and analyzed by X-ray diffraction experiments.
0.040 g of Form I+0.040 g of Form II were suspended in 4 ml of solvent and stirred at 50° C. for 1 week (7 days). The sample was filtered and analyzed by X-ray diffraction experiments.
Form I+Form II were suspended in solvent and stirred at 80° C. for 14 hours. The sample was filtered and analyzed by X-ray diffraction experiments. […] Slurry in 2-propanol at 80° C. is an atypical experiment because if we consider the boiling point of the solvent, it could be defined as a combination between a slurry and precipitation experiment. Form I was obtained during the precipitation from supersaturated solution by 2-propanol. However the high temperature and the reflux produce the energetic conditions needed by the stable crystal form (Form II) to convert to the metastable crystal form (Form I).

[3] = Comparison of the stability of several bupropion salts in open and closed vials at about 40 degrees C. and about 75% relative humidity (HPLC); settings: about 40 degrees C., about 75% relative humidity, various periods of time
Description: A comparison of the stability of several bupropion salts, including the hydrobromide, hydrochloride, maleate, tosylate, fumarate, succinate, tartrate and citrate salts, was performed by placing these salts in both open and closed vials in a stability chamber kept at about 40 degrees C. and about 75% relative humidity for various periods of time (e.g. 10 days, 13 days, 14 days, 20 days, 24 days, or 32 days). The stability of the salts was evaluated based on the formation of the main degradation products as determined by HPLC analysis and the % potency (or assay) of the API, after specific time periods in the stability chamber. The effect of the addition of solvents, such as water, ethanol and isopropyl alcohol, was also studied.

[4] = Qualitative solubility screening; settings: thermodynamic from solid, 50 mg in 4 mL, read-out: Solubility at Room Temp (RT)
Description: Bupropion hydrobromide (50 mg) was introduced in 4 mL of solvent under stirring for about 1 hour at room temperature. See Table 41 for the qualitative solubility data.

[5] = Forced degradation studies of bupropion hydrobromide and bupropion hydrochloride in closed bottles; settings: about 40 degrees C., about 75% relative humidity
Description: Further stability tests were performed by directly comparing bupropion hydrobromide and bupropion hydrochloride salts in forced degradation studies. […] At specified times, the material in the bottles was analyzed for the presence of degradation products and % potency (% assay).

With `Br.CC(NC(C)(C)C)C(=O)c1cccc(Cl)c1` (single isomer, unassigned) [Form I] the “XRD pattern / crystal form after storage” value ([1]; 7 days) was “did not show modification”, the “XRD pattern / crystal form after storage” value ([1]; 30 days) was “did not show modification” and the “Slurry result in 2-propanol” value ([2]; 50° C., 1 week (7 days)) was “converted to Form II”. For the same compound, the “Slurry result in 2-propanol” value ([2]; mixture Form I+Form II, 80° C., 14 hours) was “remained as Form I” and the “Slurry result in 2-propanol” value ([2]; room temperature, 1 week (7 days)) was “converted to Form II”.
For `Br.CC(NC(C)(C)C)C(=O)c1cccc(Cl)c1` (centres unmarked) [Bupropion hydrobromide, 3′-chloro-2-t-butylamino-1-propiophenone hydrobromide], the “amount of degradation products compared with other bupropion salts” value [3] was “least amount of degradation products”, the solubility ([4]; organic solvent or mixture, solvent 1,2-Dimethoxy Ethane) was less than 12.5 mg/mL and the solubility ([4]; organic solvent or mixture, solvent 1-Butanol) was greater than 12.5 mg/mL. For the same compound, the solubility ([4]; organic solvent or mixture, solvent 1-Methyl-2-Pyrrolidone) was greater than 12.5 mg/mL, the solubility ([4]; organic solvent or mixture, solvent 1-Octanol) was less than 12.5 mg/mL and the solubility ([4]; organic solvent or mixture, solvent 1-Propanol) was greater than 12.5 mg/mL. For the same compound, the solubility ([4]; organic solvent or mixture, solvent 2-Methoxy Ethanol) was greater than 12.5 mg/mL, the solubility ([4]; organic solvent or mixture, solvent 2-Methyl-1-Propanol) was greater than 12.5 mg/mL and the solubility ([4]; organic solvent or mixture, solvent 2-Propanol) was greater than 12.5 mg/mL. The solubility ([4]; organic solvent or mixture, solvent 3-Pentanone) was less than 12.5 mg/mL, the solubility ([4]; organic solvent or mixture, solvent 4-Methyl-2-Pentanone) was less than 12.5 mg/mL and the solubility ([4]; organic solvent or mixture, solvent (±)2-Butanol) was less than 12.5 mg/mL. The solubility ([4]; organic solvent or mixture, solvent Acetone) was less than 12.5 mg/mL, the solubility ([4]; organic solvent or mixture, solvent Acetonitrile) was greater than 12.5 mg/mL and the solubility ([4]; organic solvent or mixture, solvent Benzonitrile) was less than 12.5 mg/mL. It also gave a solubility ([4]; organic solvent or mixture, solvent Benzyl Alcohol) greater than 12.5 mg/mL, a solubility ([4]; organic solvent or mixture, solvent Chloroform) greater than 12.5 mg/mL and a solubility ([4]; organic solvent or mixture, solvent Cyclohexane) of less than 12.5 mg/mL. It also gave a solubility ([4]; organic solvent or mixture, solvent Dichloromethane) greater than 12.5 mg/mL, a solubility ([4]; organic solvent or mixture, solvent Diethyl Carbonate) of less than 12.5 mg/mL and a solubility ([4]; organic solvent or mixture, solvent Diethyl Ether) of less than 12.5 mg/mL. It also gave a solubility ([4]; organic solvent or mixture, solvent Dimethil sulfoxyde) greater than 12.5 mg/mL, a solubility ([4]; organic solvent or mixture, solvent Dimethyl Formamide) greater than 12.5 mg/mL and a solubility ([4]; organic solvent or mixture, solvent Dioxane) of less than 12.5 mg/mL. It also gave a solubility ([4]; organic solvent or mixture, solvent Ethanol) greater than 12.5 mg/mL, a solubility ([4]; organic solvent or mixture, solvent Ethyl Acetate) of less than 12.5 mg/mL and a solubility ([4]; organic solvent or mixture, solvent Ethyl Benzoate) of less than 12.5 mg/mL. The solubility ([4]; organic solvent or mixture, solvent Ethyl Formate) was less than 12.5 mg/mL, the solubility ([4]; organic solvent or mixture, solvent Iso-Propyl-Ether) was less than 12.5 mg/mL and the solubility ([4]; organic solvent or mixture, solvent Isopropyl Acetate) was less than 12.5 mg/mL. The solubility ([4]; organic solvent or mixture, solvent Mesitylene) was less than 12.5 mg/mL, the solubility ([4]; organic solvent or mixture, solvent Methanol) was greater than 12.5 mg/mL and the solubility ([4]; organic solvent or mixture, solvent Methyl Benzoate) was less than 12.5 mg/mL. It also gave a solubility ([4]; organic solvent or mixture, solvent Methyl Ethyl Ketone) of less than 12.5 mg/mL, a solubility ([4]; organic solvent or mixture, solvent Methyl-Cyclohexan) of less than 12.5 mg/mL and a solubility ([4]; organic solvent or mixture, solvent Nitrobenezene) of less than 12.5 mg/mL. It also gave a solubility ([4]; organic solvent or mixture, solvent Nitromethane) greater than 12.5 mg/mL, a solubility ([4]; organic solvent or mixture, solvent Propyl Acetate) of less than 12.5 mg/mL and a solubility ([4]; organic solvent or mixture, solvent Tert-Butanol) of less than 12.5 mg/mL. For the same compound, the solubility ([4]; organic solvent or mixture, solvent Tetrahydrofuran) was less than 12.5 mg/mL, the solubility ([4]; organic solvent or mixture, solvent Toluene) was less than 12.5 mg/mL and the solubility ([4]; organic solvent or mixture, solvent n-Hexan) was less than 12.5 mg/mL. For the same compound, the solubility ([4]; organic solvent or mixture, solvent n-Hexane) was less than 12.5 mg/mL, the solubility ([4]; organic solvent or mixture, solvent p-Xylene) was less than 12.5 mg/mL and the solubility ([4]; organic solvent or mixture, solvent t-Butyl Methyl Ether) was less than 12.5 mg/mL. The solubility ([4]; water, solvent Water) was greater than 12.5 mg/mL, the “% potency compared to the bupropion hydrochloride salt” value [5] was “generally higher” and the “amount of impurities compared to the bupropion hydrochloride salt” value [5] was “generally lower”.
